Drawing on ChEMBL document CHEMBL1126577, “Studies of the synthesis, immunology, and cytotoxicity of a cyclic octapeptide corresponding to TNF-alpha-(59-66)” (1993), this text covers IL-1 production and Cytotoxicity index for three molecules.

The species entered for experiment [1] is Homo sapiens. The experiment in a line: Tested for induction of interleukin-1 production from human monocyte of 1x 10 e5 cells at 10 ug/mL. The experiment is classed as functional.
For experiment [2], the species on record is Homo sapiens. Kind of experiment: Tested for induction of interleukin-1 production from human peripheral blood mononuclear cell (PBMC) of 2x10 e6 cells at 1 ug/mL. It is filed as functional.
Experiment [3] deals with HeLa. The experiment in a line: Tested for cytotoxicity index against HeLa cell line by MTT method at 0.1 ug/mL concentration. It is filed as functional, Homo sapiens. Background: Tetrazolium dyes change colour on reduction, which living cells bring about.
Experiment [4] concerns HEp-2. Kind of experiment: Tested for cytotoxicity index against HEP-2 cell line by MTT method at 1.0 ug/mL concentration. It is filed as functional, Homo sapiens.
Experiment [5] deals with HeLa. Kind of experiment: Tested for cytotoxicity index against HeLa cell line by MTT method at 1.0 ug/mL concentration. It is filed as functional, Homo sapiens.
For experiment [6], the system named is HEp-2. The experiment in a line: Tested for cytotoxicity index against HEP-2 cell line by MTT method at 0.1 ug/mL concentration. The experiment is classed as functional, Homo sapiens.
For experiment [7], the species on record is Homo sapiens. The experiment in a line: Tested for induction of interleukin-1 from human peripheral blood mononuclear cell (PBMC) of 2x10 e6 cells at 1 ug/mL. The experiment is classed as functional.

Bridge positions count the residues as written; N and C are the ends. Peptide text beside a SMILES is read from it.

With `CC(C)C[C@@H]1NC(=O)[C@H](CCC(N)=O)NC(=O)[C@@H](N)CC(=O)NCCCC[C@@H](C(=O)NCC(=O)O)NC(=O)[C@H](CO)NC1=O` (H-DQLSKG-OH; lactam 1-5), the values for the IL-1 production in experiment [1] and in experiment [2] were 1047 pg/mL and 579 pg/mL, respectively.

Consider `COc1cccc2c1C(=O)c1c(O)c3c(c(O)c1C2=O)C[C@@](O)(C(=O)CO)C[C@@H]3O[C@H]1C[C@H](N)[C@H](O)[C@H](C)O1` [DOXORUBICIN], for which the Cytotoxicity index was determined as 50.6 in experiment [3], 75.5 in experiment [4], 96.6 in experiment [5] and 39 in experiment [6].

In the case of H-KGDRLS-OH [TNF-ALPHA], the IL-1 production in experiment [7] amounted to 741 pg/mL.
